Laboratory results from PMC10341573, “Design, Synthesis, and Biological Evaluation of Novel Quinazolin-4(3H)-One-Based Histone Deacetylase 6 (HDAC6) Inhibitors for Anticancer Activity” (International Journal of Molecular Sciences, 2023).
“And” between values parts separate entries of the source, which are not always exact repeats. Equal values may be shown once. Read-outs that look alike come from different tables or passages of the source.

Columns and labels:
[1] = tested on: A549, MCF-7, and HT-29; parameters: method as in doi:10.1016/j.molstruc.2022.132422; details: most active in all cell lines examined (A549, MCF-7, HT-29); read-out: IC50, antiproliferative; cited from earlier work
[2] = tested on: HCT-116 cell line; parameters: method as in PMID 33214036; details: read-out: IC50, antiproliferative; cited from earlier work
[3] = target: T1, HDAC8 (Homo sapiens, UniProt Q9BY41); test: HDAC enzyme activity assay (fluorogenic, Boc-Lys(trifluoroacetyl)-AMC), HDAC8; format: biochemical; details: class I HDAC8; mean ± SD, triplicate
T1 construct: codon-optimized full-length HDAC8; made in house; host or cells: E. coli BL21(DE3), pET14b vector
T1 sequence (Q9BY41 1-377): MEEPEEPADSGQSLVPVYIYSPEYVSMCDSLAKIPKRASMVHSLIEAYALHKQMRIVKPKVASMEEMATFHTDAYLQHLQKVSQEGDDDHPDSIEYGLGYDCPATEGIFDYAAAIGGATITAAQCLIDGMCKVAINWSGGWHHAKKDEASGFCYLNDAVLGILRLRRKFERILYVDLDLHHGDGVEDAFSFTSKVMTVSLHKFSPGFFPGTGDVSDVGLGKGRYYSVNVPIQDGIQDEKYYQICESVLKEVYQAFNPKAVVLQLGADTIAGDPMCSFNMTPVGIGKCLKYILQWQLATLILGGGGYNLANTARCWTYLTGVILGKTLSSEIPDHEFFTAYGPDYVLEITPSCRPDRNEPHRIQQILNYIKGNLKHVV

[4] = target: T2, HDAC6 (Homo sapiens, UniProt Q9UBN7); test: HDAC enzyme activity assay (fluorogenic, Boc-Lys(acetyl)-AMC), HDAC6; format: biochemical; details: class IIb HDAC6; mean ± SD, triplicate
T2 construct: Full-length recombinant HDAC6 was purchased from BPS Bioscience; purchased BPS Bioscience
T2 sequence (Q9UBN7 1-1215): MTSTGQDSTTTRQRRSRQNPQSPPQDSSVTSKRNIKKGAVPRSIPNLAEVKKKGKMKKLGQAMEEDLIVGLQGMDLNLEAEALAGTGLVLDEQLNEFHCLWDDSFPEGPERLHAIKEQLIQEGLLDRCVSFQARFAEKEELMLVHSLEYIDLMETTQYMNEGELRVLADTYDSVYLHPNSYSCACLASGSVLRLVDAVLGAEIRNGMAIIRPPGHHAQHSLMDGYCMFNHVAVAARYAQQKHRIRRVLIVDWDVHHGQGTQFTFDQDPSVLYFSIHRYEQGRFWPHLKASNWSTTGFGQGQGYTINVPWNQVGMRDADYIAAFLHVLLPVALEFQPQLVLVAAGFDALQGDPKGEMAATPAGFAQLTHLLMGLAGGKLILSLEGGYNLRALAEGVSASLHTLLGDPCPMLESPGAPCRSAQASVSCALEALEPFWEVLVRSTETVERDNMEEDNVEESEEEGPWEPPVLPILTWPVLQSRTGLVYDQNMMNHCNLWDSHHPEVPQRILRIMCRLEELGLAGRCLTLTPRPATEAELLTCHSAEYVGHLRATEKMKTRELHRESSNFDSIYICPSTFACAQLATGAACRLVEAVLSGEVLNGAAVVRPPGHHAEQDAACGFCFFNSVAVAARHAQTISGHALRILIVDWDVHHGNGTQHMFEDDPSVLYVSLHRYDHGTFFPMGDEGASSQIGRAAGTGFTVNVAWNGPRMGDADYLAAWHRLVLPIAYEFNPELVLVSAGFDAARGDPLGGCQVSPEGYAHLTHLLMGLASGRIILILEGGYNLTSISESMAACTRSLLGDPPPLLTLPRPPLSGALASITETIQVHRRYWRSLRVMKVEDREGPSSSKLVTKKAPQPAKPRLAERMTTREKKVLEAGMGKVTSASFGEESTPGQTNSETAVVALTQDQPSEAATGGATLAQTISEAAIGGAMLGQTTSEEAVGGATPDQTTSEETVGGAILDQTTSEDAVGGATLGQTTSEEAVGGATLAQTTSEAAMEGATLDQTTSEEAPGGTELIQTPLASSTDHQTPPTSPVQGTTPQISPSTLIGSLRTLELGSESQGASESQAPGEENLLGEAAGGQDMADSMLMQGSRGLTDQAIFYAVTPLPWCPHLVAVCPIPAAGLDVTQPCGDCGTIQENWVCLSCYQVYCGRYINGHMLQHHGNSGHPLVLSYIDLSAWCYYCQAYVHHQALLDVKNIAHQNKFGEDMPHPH

[5] = target: T3, HDAC4 (Homo sapiens, UniProt P56524); test: HDAC enzyme activity assay (fluorogenic, Boc-Lys(trifluoroacetyl)-AMC), HDAC4; format: biochemical; details: class IIa HDAC4; mean ± SD, triplicate
T3 construct: catalytic domain of HDAC4 (T648-T1057, full length: UniProt P56524); made in house; host or cells: E. coli BL21(DE3), pET14b vector

[6] = tested on: B16; test: MTT cell proliferation assay, B16; format: cell-based, murine; details: Mus musculus, read-out: IC50 ± SD B16
[7] = tested on: MCF7; test: MTT cell proliferation assay, MCF7; format: cell-based, human; details: Homo sapiens, MCF7, 72 h, read-out: IC50 ± SD MCF7
[8] = tested on: HEK 293; test: MTT cell proliferation assay, HEK 293; format: cell-based, human; details: Homo sapiens, read-out: IC50 ± SD HEK 293
[9] = tested on: HCT116; test: MTT cell proliferation assay, HCT116; format: cell-based, human; details: Homo sapiens, read-out: IC50 ± SD HCT116
[10] = tested on: HCC827 cells; parameters: method as in PMID 34403956; details: strongest against all cancer cell lines, read-out: IC50, antiproliferative; cited from earlier work
[11] = tested on: HDAC; parameters: method as in PMID 29223029; details: quinazoline-4-(3H)-one cap group; read-out: IC50 HDAC inhibitory activity; cited from earlier work
[12] = cited from earlier work
[13] = B16, MTT, 72 h, mean ± SD, triplicate
[14] = MTT, 72 h, mean ± SD, triplicate
[15] = HEK293, MTT, 72 h, mean ± SD, triplicate
[16] = HCT-116, MTT, 72 h, mean ± SD, triplicate

T3 sequence (P56524 648-1057): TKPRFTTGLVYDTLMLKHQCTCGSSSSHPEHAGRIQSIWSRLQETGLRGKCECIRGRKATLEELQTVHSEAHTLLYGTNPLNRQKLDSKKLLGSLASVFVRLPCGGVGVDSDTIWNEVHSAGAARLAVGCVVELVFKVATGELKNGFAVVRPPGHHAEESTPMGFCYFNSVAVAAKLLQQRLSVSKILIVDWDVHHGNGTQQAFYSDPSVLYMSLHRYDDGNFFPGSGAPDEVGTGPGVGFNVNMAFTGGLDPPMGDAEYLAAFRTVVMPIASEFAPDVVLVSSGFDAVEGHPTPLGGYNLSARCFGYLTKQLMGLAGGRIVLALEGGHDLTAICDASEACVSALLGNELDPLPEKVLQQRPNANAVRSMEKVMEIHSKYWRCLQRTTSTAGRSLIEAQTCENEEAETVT

| SMILES | IC50 [3] | IC50 [4] | IC50 [5] | IC50 [6, 13] | IC50 [7, 14] | melting point | IC50 [8, 15] | IC50 [9, 16] | other results |
| --- | --- | --- | --- | --- | --- | --- | --- | --- | --- |
| C=CCn1c(SCC(=O)Nc2cccc(C(=O)/C=C/c3ccc(OC)cc3)c2)nc2ccccc2c1=O [A] |  |  |  |  |  |  |  |  | IC50 [1]: 1.16 µM |
| C/C(=N\NC(=O)c1cc([N+](=O)[O-])ccc1Cl)c1ccc(NC(=O)CSc2nc3ccccc3c(=O)n2-c2ccc(C)cc2)cc1 [B] |  |  |  |  |  |  |  |  | IC50 [2]: 11.7 µM |
| Cc1ccccc1-n1c(SCc2ccc(C(=O)NO)cc2)nc2cc(Cl)ccc2c1=O [Compound 5k, 4-(((7-chloro-4-oxo-3-(o-tolyl)-3,4-dihydroquinazolin-2-yl)thio)methyl)-N-hydroxybenzamide] | 1.3 ± 0.1 µM | 0.41 ± 0.15 µM | > 35 µM | > 50 µM | > 50 µM | 180 °C and 178 to 180 °C | > 50 µM | > 50 µM |  |
| Cc1ccc(-n2c(SCc3ccc(C(=O)NO)cc3)nc3cc(Cl)ccc3c2=O)cc1 [Compound 5l, 4-(((7-chloro-4-oxo-3-(p-tolyl)-3,4-dihydroquinazolin-2-yl)thio)methyl)-N-hydroxybenzamide] | 17 µM | 3.9 ± 0.4 µM | 19 µM | > 50 µM | > 50 µM | 170 to 175 °C and 173 to 175 °C | > 50 µM | > 50 µM |  |
| O=C(NO)c1ccc(CSc2nc3cc(Cl)ccc3c(=O)n2-c2ccc(Cl)cc2)cc1 [Compound 5n, 4-(((7-chloro-3-(4-chlorophenyl)-4-oxo-3,4-dihydroquinazolin-2-yl)thio)methyl)-N-hydroxybenzamide] | 0.14 ± 0.02 µM | 0.32 ± 0.03 µM | 6.7 ± 1.1 µM | 33.9 ± 5.12 µM | > 50 µM | 230 to 235 °C and 234 to 235 °C | > 50 µM | > 50 µM |  |
| O=C(c1ccccc1)N(C(=O)c1ccccc1)c1ccc(-c2ccc3ncn(Cc4ccccc4)c(=O)c3c2)cn1 [Compound C] |  |  |  |  |  |  |  |  | IC50 [10]: 1.12 µM |
| COc1cc2ncn(Cc3ccc(C(=O)NO)cc3)c(=O)c2cc1OC [G] |  |  |  |  |  |  |  |  | IC50 [11]: 0.37 µM |
| O=C(NO)c1ccc(CN(c2cnccn2)c2cnccn2)cc1 [KA2507] |  |  |  |  |  |  |  |  | clinical activity ([12]; phase I/II): prolonged dis-ease stabilization in a subset of patients; toxicity in clinical trial ([12]; phase I/II): no significant toxicities |
| O=C(CCCCCCNC(=O)c1cnc(N(c2ccccc2)c2ccccc2)nc1)NO [Ricolinostat, reference compound] |  |  |  |  |  |  |  |  | outcome of combination therapy with bortezomib and dexamethasone ([12]; multiple myeloma): safe, well-tolerated, and active against multiple myeloma; safety of combination with paclitaxel ([12]; patients with metastatic breast cancer): could be safely combined with paclitaxel; single-agent therapy outcome ([12]; single agent): neither significant toxicities nor clinical responses; IC50 ([6]; B16, 72 h): 89.2 ± 12.5 µM; IC50 [7]: > 50 µM; IC50 ([8]; HEK293, 72 h): 66.8 ± 10.6 µM; IC50 ([9]; HCT-116, 72 h): 40.5 ± 7.69 µM |
